From ChEMBL document CHEMBL1201862, “PubChem BioAssay data set” (2004)
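Following 48 hours of exposure in 96-well plates, responses at five concentrations were used to interpolate endpoints linearly. Here, GI50 denotes the concentration required for 50% inhibition of growth.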 Activity calls are given as the source filed them. Rule as the data show it: active = GI50 up to about 1.1 µM and inactive = higher.

Columns and labels:
Assay in all cases: NCI anticancer screen, dose series, 48 h
[1] = test system: Malme-3M
[2] = test system: NCI-H522
[3] = test system: HCT-116
[4] = test system: SR
[5] = test system: K562
[6] = test system: SNB-19
[7] = test system: MDA-N
[8] = test system: SN12C
[9] = test system: T47D
[10] = test system: SF-295
[11] = test system: EKVX
[12] = test system: TK-10
[13] = test system: ACHN
[14] = test system: UACC-257
[15] = test system: MOLT-4
[16] = test system: HOP-62
[17] = test system: KM12
[18] = test system: HL-60
[19] = test system: UACC-62
[20] = test system: SK-MEL-2

SMILES	GI50 [1]	GI50 [2]	GI50 [3]	GI50 [4]	GI50 [5]	GI50 [6]	GI50 [7]	GI50 [8]	GI50 [9]	GI50 [10]	GI50 [11]	GI50 [12]	GI50 [13]	GI50 [14]	GI50 [15]	GI50 [16]	GI50 [17]	GI50 [18]	GI50 [19]	GI50 [20]
CC1(C)COP(=S)(c2ccccn2)O[C@@H]1c1ccccc1 (stereo partly specified)	> 100 µM (inactive)	56.6 µM (inactive)	42.8 µM (inactive)	30 µM (inactive)	41.6 µM (inactive)	> 100 µM (inactive)	74.6 µM (inactive)	> 100 µM (inactive)	22.3 µM (inactive)	55.2 µM (inactive)	> 100 µM (inactive)	> 100 µM (inactive)	> 100 µM (inactive)	> 100 µM (inactive)	30.1 µM (inactive)	> 100 µM (inactive)	> 100 µM (inactive)	24.1 µM (inactive)	> 100 µM (inactive)	–
COc1ccc(/C=C(\C(=C/c2ccc(OC)cc2)[N+](=O)[O-])[N+](=O)[O-])cc1	3.34 µM (inactive)	2.58 µM (inactive)	10.2 µM (inactive)	2.03 µM (inactive)	3.92 µM (inactive)	10.1 µM (inactive)	3.14 µM (inactive)	2.88 µM (inactive)	8.83 µM (inactive)	14.3 µM (inactive)	8.71 µM (inactive)	5.71 µM (inactive)	5.96 µM (inactive)	5.22 µM (inactive)	2.96 µM (inactive)	5.47 µM (inactive)	14.6 µM (inactive)	0.261 µM (active)	2.91 µM (inactive)	11.6 µM (inactive)
CC(C)c1ccccc1[S+]([O-])c1ccccc1C(C)(C)O (stereo unspecified)	> 100 µM (inactive)	96.8 µM (inactive)	> 100 µM (inactive)	> 100 µM (inactive)	60.4 µM (inactive)	37.3 µM (inactive)	57.8 µM (inactive)	> 100 µM (inactive)	> 100 µM (inactive)	21.1 µM (inactive)	> 100 µM (inactive)	> 100 µM (inactive)	> 100 µM (inactive)	> 100 µM (inactive)	> 100 µM (inactive)	22.5 µM (inactive)	30.8 µM (inactive)	82.6 µM (inactive)	> 100 µM (inactive)	67.6 µM (inactive)
CN(N=O)C(=O)Nc1ccc(C(=O)O)cc1	–	> 100 µM (inactive)	> 100 µM (inactive)	> 100 µM (inactive)	> 100 µM (inactive)	> 100 µM (inactive)	> 100 µM (inactive)	> 100 µM (inactive)	> 100 µM (inactive)	> 100 µM (inactive)	> 100 µM (inactive)	> 100 µM (inactive)	> 100 µM (inactive)	> 100 µM (inactive)	> 100 µM (inactive)	> 100 µM (inactive)	> 100 µM (inactive)	> 100 µM (inactive)	> 100 µM (inactive)	> 100 µM (inactive)
O=C1CSCC(=O)Nc2ccccc2N1	> 100 µM (inactive)	> 100 µM (inactive)	> 100 µM (inactive)	> 100 µM (inactive)	> 100 µM (inactive)	> 100 µM (inactive)	> 100 µM (inactive)	> 100 µM (inactive)	> 100 µM (inactive)	> 100 µM (inactive)	> 100 µM (inactive)	> 100 µM (inactive)	> 100 µM (inactive)	> 100 µM (inactive)	> 100 µM (inactive)	> 100 µM (inactive)	> 100 µM (inactive)	> 100 µM (inactive)	> 100 µM (inactive)	> 100 µM (inactive)
Cc1ccc2c(O)c3c(cc2c1)C(=O)c1c2c(cc(O)c1C3=O)C1(C)OC(O2)C(O)C(N(C)C)C1O (stereo unspecified)	–	1.22 µM (inactive)	0.296 µM (active)	0.0452 µM (active)	0.167 µM (active)	1.17 µM (inactive)	1.63 µM (inactive)	1.37 µM (inactive)	0.656 µM (active)	1.09 µM (active)	1.32 µM (inactive)	1.69 µM (inactive)	0.605 µM (active)	1.51 µM (inactive)	0.124 µM (active)	1.01 µM (active)	0.59 µM (active)	0.155 µM (active)	1.07 µM (active)	1.85 µM (inactive)
COc1ccccc1-c1cc(=O)c2ccc(OC)c(OC)c2o1	92.5 µM (inactive)	32.8 µM (inactive)	45.9 µM (inactive)	> 100 µM (inactive)	> 100 µM (inactive)	82.2 µM (inactive)	48.2 µM (inactive)	63.1 µM (inactive)	19.3 µM (inactive)	40.8 µM (inactive)	58.7 µM (inactive)	46.6 µM (inactive)	39.4 µM (inactive)	44.9 µM (inactive)	60.4 µM (inactive)	> 100 µM (inactive)	–	27.5 µM (inactive)	51.5 µM (inactive)	70.6 µM (inactive)
CCCCCCCCCCCCCCCCC(=O)NCC(=O)NCC(=O)NC(Cc1ccccc1)C(=O)Oc1ccc([N+](=O)[O-])cc1 (stereo unspecified)	–	26.7 µM (inactive)	18.6 µM (inactive)	25 µM (inactive)	23.3 µM (inactive)	> 10 µM (inactive)	48.5 µM (inactive)	19.7 µM (inactive)	30.7 µM (inactive)	23 µM (inactive)	37.8 µM (inactive)	71 µM (inactive)	> 100 µM (inactive)	23.9 µM (inactive)	16.4 µM (inactive)	22 µM (inactive)	22.7 µM (inactive)	50 µM (inactive)	20.7 µM (inactive)	48.4 µM (inactive)
CSc1c(C#N)c(=O)n(N)c2c1c(C)nn2-c1ccccc1	22.4 µM (inactive)	22.9 µM (inactive)	23.7 µM (inactive)	23.6 µM (inactive)	31 µM (inactive)	28.4 µM (inactive)	35.6 µM (inactive)	34.4 µM (inactive)	25.8 µM (inactive)	–	26.7 µM (inactive)	30.1 µM (inactive)	–	22 µM (inactive)	27.5 µM (inactive)	–	34.2 µM (inactive)	26.2 µM (inactive)	22 µM (inactive)	19.3 µM (inactive)
CC1=CC(C)C(O)C(C)/C=C\C(O)C/C=C(/C)C(=O)CC(O)C(C)\C=C/C=C\C=C/C(=O)NC2=C(O)C(=O)c3c(cc(C)c(O)c3C1=O)C2=O (stereo unspecified)	–	> 100 µM (inactive)	58.1 µM (inactive)	31.9 µM (inactive)	–	> 100 µM (inactive)	> 100 µM (inactive)	> 100 µM (inactive)	> 100 µM (inactive)	> 100 µM (inactive)	> 100 µM (inactive)	> 100 µM (inactive)	> 100 µM (inactive)	> 100 µM (inactive)	71.1 µM (inactive)	> 100 µM (inactive)	56.2 µM (inactive)	> 100 µM (inactive)	97.7 µM (inactive)	> 100 µM (inactive)
OC(c1cc2ccccc2o1)c1cc2ccccc2s1 (stereo unspecified)	–	> 10 µM (inactive)	> 10 µM (inactive)	> 10 µM (inactive)	4.57 µM (inactive)	> 10 µM (inactive)	3.94 µM (inactive)	> 10 µM (inactive)	> 10 µM (inactive)	> 10 µM (inactive)	7.23 µM (inactive)	> 10 µM (inactive)	> 10 µM (inactive)	> 10 µM (inactive)	> 10 µM (inactive)	> 10 µM (inactive)	7.23 µM (inactive)	> 10 µM (inactive)	> 10 µM (inactive)	> 10 µM (inactive)
Cc1ccccc1N/N=C1\C(=O)Nc2ccccc21	–	96.8 µM (inactive)	> 100 µM (inactive)	> 100 µM (inactive)	> 100 µM (inactive)	> 100 µM (inactive)	> 100 µM (inactive)	88.9 µM (inactive)	> 100 µM (inactive)	> 100 µM (inactive)	> 100 µM (inactive)	> 100 µM (inactive)	> 100 µM (inactive)	> 100 µM (inactive)	> 100 µM (inactive)	> 100 µM (inactive)	> 100 µM (inactive)	> 100 µM (inactive)	> 100 µM (inactive)	> 100 µM (inactive)
O=C1/C(=C/c2ccco2)N=C(c2ccccc2)N1c1ccc(S(=O)(=O)Nc2nccs2)cc1	> 100 µM (inactive)	30.9 µM (inactive)	> 100 µM (inactive)	> 100 µM (inactive)	> 100 µM (inactive)	–	> 100 µM (inactive)	> 100 µM (inactive)	80.4 µM (inactive)	> 100 µM (inactive)	33.2 µM (inactive)	> 100 µM (inactive)	74.6 µM (inactive)	27.6 µM (inactive)	43.4 µM (inactive)	> 100 µM (inactive)	> 100 µM (inactive)	89.9 µM (inactive)	93.5 µM (inactive)	> 100 µM (inactive)
COC1CC(C)(NC(C)=O)C2OC(c3ccccc3)OCC2O1 (stereo unspecified)	> 100 µM (inactive)	> 100 µM (inactive)	> 100 µM (inactive)	> 100 µM (inactive)	> 100 µM (inactive)	> 100 µM (inactive)	> 100 µM (inactive)	> 100 µM (inactive)	> 100 µM (inactive)	> 100 µM (inactive)	> 100 µM (inactive)	> 100 µM (inactive)	> 100 µM (inactive)	> 100 µM (inactive)	> 100 µM (inactive)	> 100 µM (inactive)	> 100 µM (inactive)	> 100 µM (inactive)	> 100 µM (inactive)	–
